One may read the IC50 as the concentration needed to halve the response being measured.

Starred links: 1 amine or outer side, 2 acyl side, 3 side chain; linkers in the order of their positions; H or OH if unused. Non-standard residues stand in square brackets, D forms with d. Residues, ends and D or L forms follow the SMILES beside them. ξ: configuration not given here. LeuΨ(ξCHOHCH2)Val = CC(C)C[C@H](N[*:1])C(O)C[C@H](C(=O)[*:2])C(C)C; X2 = CC(=O)O[C@@H](CC(=O)[*:2])[C@H](CC(C)C)N[*:1]; Sta(3ξ) = CC(C)C[C@H](N[*:1])C(O)CC(=O)[*:2]; X3 = CC(C)C[C@H](N[*:1])[C@H](O)CC(=O)[*:2]; X4 = O=C(CC(O)[C@H](Cc1ccccc1)N[*:1])[*:2]; X5 = O=C(CC(O)[C@H](CC1CCCCC1)N[*:1])[*:2]; Sta = CC(C)C[C@H](N)[C@@H](O)CC(=O)O; X1 = CC(C)CC(N[*:1])C(O)CC(=O)[*:2]; Tle = CC(C)(C)[C@H](N)C(=O)O

For this experiment, the target named is Beta-secretase 1 (Homo sapiens, UniProt P56817). Briefly: Inhibition of human brain beta-secretase, using MBPC125Swe (maltose-binding-protein C-125 Swedish) assay. The experiment is classed as biochemical.
Beta-secretase 1, sequence (P56817 whole entry): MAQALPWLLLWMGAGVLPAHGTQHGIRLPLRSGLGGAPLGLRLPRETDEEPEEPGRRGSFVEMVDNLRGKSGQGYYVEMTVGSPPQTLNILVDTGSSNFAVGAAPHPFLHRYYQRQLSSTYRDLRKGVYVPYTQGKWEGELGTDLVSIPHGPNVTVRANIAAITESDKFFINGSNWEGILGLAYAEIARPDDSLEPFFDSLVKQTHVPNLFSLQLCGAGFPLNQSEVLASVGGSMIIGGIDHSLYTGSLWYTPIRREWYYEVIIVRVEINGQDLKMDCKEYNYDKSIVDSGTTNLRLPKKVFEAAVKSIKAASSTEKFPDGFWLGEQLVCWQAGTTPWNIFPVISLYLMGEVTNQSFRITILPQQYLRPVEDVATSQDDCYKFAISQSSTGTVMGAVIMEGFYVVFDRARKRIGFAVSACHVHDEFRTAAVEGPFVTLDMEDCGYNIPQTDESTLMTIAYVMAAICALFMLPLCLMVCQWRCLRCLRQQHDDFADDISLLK

As to `CSCC[C@H](NC(=O)[C@@H](NC(C)=O)C(C)C)C(=O)N[C@@H](CC1CCCCC1)C(O)CC(=O)N[C@H](C(=O)N[C@@H](C)C(=O)N[C@@H](CCC(=O)O)C(=O)N[C@@H](Cc1ccccc1)C(=O)O)C(C)C` (some centres not stated) (Ac-VM[X5]VAEF-OH), the IC50 came out at 5 µM.
The compound `CSCC[C@H](NC(=O)[C@@H](NC(C)=O)C(C)C)C(=O)NC(CC(C)C)C(O)CC(=O)N[C@H](C(=O)O)C(C)C` (some centres not stated) yielded an IC50 of more than 100 µM.
With H-TNIKTEEISEVNRDAEFR-OH the figure was more than 200 µM.
Then H-TNIKTEEISEVNFDAEFR-OH, with more than 200 µM; and H-TNIKTEEISEVNVDAEFR-OH, with more than 200 µM.
On to `CSCC[C@H](NC(=O)[C@@H](NC(C)=O)C(C)C)C(=O)NC(CC(C)C)C(O)CC(=O)N[C@H](C(=O)N[C@@H](C)C(=O)N[C@@H](CCC(=O)O)C(=O)N[C@@H](Cc1ccccc1)C(=O)O)[C@H](C)O` (some centres not stated), for which the IC50 worked out at 100 µM.
`CC(C)C[C@H](NC(=O)[C@H](CC(N)=O)NC(=O)[C@@H](N)C(C)C)C(O)CC(=O)N[C@H](C(=O)N[C@@H](C)C(=O)N[C@@H](CCC(=O)O)C(=O)N[C@@H](Cc1ccccc1)C(=O)O)C(C)C` (some centres not stated) (H-VN[Sta(3ξ)]VAEF-OH) came in with an IC50 of 9 µM.
With `CSCC[C@H](NC(=O)[C@@H](NC(C)=O)C(C)C)C(=O)NC(CC(C)C)C(O)CC(=O)N[C@H](C(=O)N[C@@H](C)C(=O)O)C(C)C` (some centres not stated) (Ac-VM[X1]VA-OH) the figure was more than 100 µM; with H-TNIKTEEISEVNLVAEFR-OH, 3 µM; with `CSCC[C@H](NC(=O)[C@@H](NC(C)=O)C(C)C)C(=O)N[C@@H](CC(C)C)C(O)CC(=O)N[C@H](C(=O)N[C@@H](C)C(=O)N[C@@H](C)C(=O)N[C@@H](Cc1ccccc1)C(=O)O)C(C)C` (some centres not stated) (Ac-VM[Sta(3ξ)]VAAF-OH), 2 µM.
H-TNIKTEEISEVNEDAEFR-OH registered an IC50 of more than 200 µM.
For the compound `CC(C)C[C@H](NC(=O)[C@H](CC(N)=O)NC(=O)[C@H](C)NC(=O)[C@@H](N)CCC(=O)O)C(O)CC(=O)N[C@H](C(=O)N[C@@H](C)C(=O)N[C@@H](CCC(=O)O)C(=O)N[C@@H](Cc1ccccc1)C(=O)O)C(C)C` (some centres not stated) (H-EAN[Sta(3ξ)]VAEF-OH), the IC50 amounted to 2.5 µM.
On to `CC[C@H](C)[C@H](NC(=O)[C@H](CCC(=O)O)NC(=O)[C@H](CCC(=O)O)NC(=O)[C@@H](NC(=O)[C@@H](N)CCCCN)[C@@H](C)O)C(=O)N[C@@H](CO)C(=O)N[C@@H](CCC(=O)O)C(=O)N[C@H](C(=O)N[C@@H](CC(N)=O)C(=O)N[C@@H](CC(C)C)[C@@H](O)CC(=O)N[C@@H](CC(=O)O)C(=O)N[C@@H](C)C(=O)N[C@@H](CCC(=O)O)C(=O)N[C@@H](Cc1ccccc1)C(=O)N[C@@H](CCCN=C(N)N)C(=O)O)C(C)C` (H-KTEEISEVN[Sta]DAEFR-OH), for which the IC50 was 60 µM.
Take H-TNIKTEEISEVNADAEFR-OH: the IC50 was more than 200 µM.
`CSCC[C@H](NC(=O)[C@@H](NC(C)=O)C(C)C)C(=O)N[C@@H](CC(C)C)C(O)CC(=O)N[C@@H](CC(=O)O)C(=O)N[C@@H](C)C(=O)N[C@@H](CCC(=O)O)C(=O)N[C@@H](C)C(=O)O` (some centres not stated) (Ac-VM[Sta(3ξ)]DAEA-OH) had an IC50 of more than 100 µM.
Consider `CC[C@H](C)[C@H](NC(=O)[C@H](CCC(=O)O)NC(=O)[C@H](CCC(=O)O)NC(=O)[C@@H](NC(=O)[C@@H](N)CCCCN)[C@@H](C)O)C(=O)N[C@@H](CO)C(=O)N[C@@H](CCC(=O)O)C(=O)N[C@H](C(=O)N[C@@H](CC(N)=O)C(=O)N[C@@H](CC(C)C)[C@H](CC(=O)N[C@@H](CC(=O)O)C(=O)N[C@@H](C)C(=O)N[C@@H](CCC(=O)O)C(=O)N[C@@H](Cc1ccccc1)C(=O)O)OC(C)=O)C(C)C` (H-KTEEISEVN[X2]DAEF-OH), for which the IC50 is more than 200 µM.
The compound `CSCC[C@H](NC(=O)[C@@H](NC(C)=O)C(C)C)C(=O)N[C@@H](CC(C)C)C(O)CC(=O)N[C@H](C(=O)N[C@@H](C)C(=O)N[C@@H](CCC(=O)O)C(=O)N[C@@H](C)C(=O)O)C(C)C` (some centres not stated) (Ac-VM[Sta(3ξ)]VAEA-OH) yielded an IC50 of 1.2 µM.
With H-TNIKTEEISEVNLAAEFR-OH, the IC50 was more than 200 µM.
Consider `CSCC[C@H](NC(=O)[C@@H](NC(C)=O)C(C)C)C(=O)NC(CC(C)C)C(O)CC(=O)N[C@@H](Cc1ccccc1)C(=O)N[C@@H](C)C(=O)N[C@@H](CCC(=O)O)C(=O)N[C@@H](Cc1ccccc1)C(=O)O` (some centres not stated) (Ac-VM[X1]FAEF-OH), for which the IC50 amounted to 15 µM.
In turn, `CSCC[C@H](NC(=O)[C@@H](NC(C)=O)C(C)C)C(=O)NC(CC(C)C)C(O)CC(=O)N1CCC[C@@H]1C(=O)N[C@@H](C)C(=O)N[C@@H](CCC(=O)O)C(=O)N[C@@H](Cc1ccccc1)C(=O)O` (some centres not stated) had a concentration for half-maximal inhibition (IC50) of more than 200 µM.
With H-TNIKTEEISEVNLKAEFR-OH the figure was 40 µM; with `CC(=O)N[C@H](C(=O)N[C@@H](CC(N)=O)C(=O)NC(CC(C)C)C(O)CC(=O)N[C@H](C(=O)N[C@@H](C)C(=O)N[C@@H](CCC(=O)O)C(=O)N[C@@H](Cc1ccccc1)C(=O)O)C(C)C)C(C)C` (some centres not stated) (Ac-VN[X1]VAEF-OH), 0.5 µM; with `CC(C)C[C@H](NC(=O)[C@H](CC(N)=O)NC(=O)[C@@H](NC(=O)[C@@H](N)CCC(=O)O)C(C)C)C(O)CC(=O)N[C@H](C(=O)N[C@@H](C)C(=O)N[C@@H](CCC(=O)O)C(=O)N[C@@H](Cc1ccccc1)C(=O)O)C(C)C` (some centres not stated) (H-EVN[Sta(3ξ)]VAEF-OH), 0.04 µM.
For the compound `CSCC[C@H](NC(=O)[C@@H](NC(C)=O)C(C)C)C(=O)NC(CC(C)C)C(O)CC(=O)N[C@@H](C)C(=O)N[C@@H](C)C(=O)N[C@@H](CCC(=O)O)C(=O)N[C@@H](Cc1ccccc1)C(=O)O` (some centres not stated) (Ac-VM[X1]AAEF-OH), the IC50 came out at 5 µM.
In the case of H-TNIKTEEISEVNLFAEFR-OH, the IC50 is 40 µM.
`CSCC[C@H](NC(=O)[C@@H](NC(C)=O)C(C)C)C(=O)N[C@@H](Cc1ccccc1)C(O)CC(=O)N[C@H](C(=O)N[C@@H](C)C(=O)N[C@@H](CCC(=O)O)C(=O)N[C@@H](Cc1ccccc1)C(=O)O)C(C)C` (some centres not stated) (Ac-VM[X4]VAEF-OH) yielded an IC50 of 0.5 µM.
Take `CSCC[C@H](NC(=O)[C@@H](NC(C)=O)C(C)C)C(=O)N[C@@H](CC(C)C)C(O)CC(=O)N[C@H](C(=O)N[C@@H](C)C(=O)N[C@@H](CCC(=O)O)C(=O)N[C@@H](C)C(=O)O)C(C)(C)C` (some centres not stated) (Ac-VM[Sta(3ξ)][Tle]AEA-OH): the IC50 stood at 20 µM.
H-TNIKTEEISEVNGDAEFR-OH displayed an IC50 of more than 200 µM.
Then H-TNIKTEEISEVNMDAEFR-OH, with more than 200 µM; and `CSCC[C@H](NC(=O)[C@@H](NC(C)=O)C(C)C)C(=O)NC(CC(C)C)C(O)CC(=O)N[C@H](C(=O)N[C@@H](C)C(=O)N[C@@H](CCC(=O)O)C(=O)O)C(C)C` (some centres not stated) (Ac-VM[X1]VAE-OH), with 1 µM.
With `CC[C@H](C)[C@H](NC(=O)[C@H](CCC(=O)O)NC(=O)[C@H](CCC(=O)O)NC(=O)[C@@H](NC(=O)[C@@H](N)CCCCN)[C@@H](C)O)C(=O)N[C@@H](CO)C(=O)N[C@@H](CCC(=O)O)C(=O)N[C@H](C(=O)N[C@@H](CC(N)=O)C(=O)N[C@@H](CC(C)C)[C@@H](O)CC(=O)N[C@H](C(=O)N[C@@H](C)C(=O)N[C@@H](CCC(=O)O)C(=O)N[C@@H](Cc1ccccc1)C(=O)O)C(C)C)C(C)C` (H-KTEEISEVN[Sta]VAEF-OH) the figure was 0.03 µM.
Then `CC[C@H](C)[C@H](NC(=O)[C@H](CCC(=O)O)NC(=O)[C@H](CCC(=O)O)NC(=O)[C@@H](NC(=O)[C@@H](N)CCCCN)[C@@H](C)O)C(=O)N[C@@H](CO)C(=O)N[C@@H](CCC(=O)O)C(=O)N[C@H](C(=O)N[C@@H](CC(N)=O)C(=O)N[C@@H](CC(C)C)[C@H](O)CC(=O)N[C@@H](CC(=O)O)C(=O)N[C@@H](C)C(=O)N[C@@H](CCC(=O)O)C(=O)N[C@@H](Cc1ccccc1)C(=O)O)C(C)C` (H-KTEEISEVN[X3]DAEF-OH), with more than 200 µM.
For `CC(C)CC(NC(=O)[C@@H](N)CC(N)=O)C(O)CC(=O)N[C@H](C(=O)N[C@@H](C)C(=O)N[C@@H](CCC(=O)O)C(=O)N[C@@H](Cc1ccccc1)C(=O)O)C(C)C` (some centres not stated) (H-N[X1]VAEF-OH), the IC50 was more than 150 µM.
With H-TNIKTEEISEVNHDAEFR-OH the figure was more than 200 µM; with `CC[C@H](C)[C@H](NC(=O)[C@H](CCC(=O)O)NC(=O)[C@H](CCC(=O)O)NC(=O)[C@@H](NC(=O)[C@@H](N)CCCCN)[C@@H](C)O)C(=O)N[C@@H](CO)C(=O)N[C@@H](CCC(=O)O)C(=O)N[C@H](C(=O)N[C@@H](CC(N)=O)C(=O)N[C@@H](CC(C)C)[C@@H](O)CC(=O)N[C@@H](C)C(=O)N[C@@H](C)C(=O)N[C@@H](CCC(=O)O)C(=O)N[C@@H](Cc1ccccc1)C(=O)O)C(C)C` (H-KTEEISEVN[Sta]AAEF-OH), 0.5 µM.
For the compound `CSCC[C@H](NC(=O)[C@@H](NC(C)=O)C(C)C)C(=O)NC(CC(C)C)C(O)CC(=O)N[C@H](C(=O)N[C@@H](C)C(=O)N[C@@H](CCC(=O)O)C(=O)N[C@@H](Cc1ccccc1)C(=O)O)C(C)C` (some centres not stated) (Ac-VM[X1]VAEF-OH), the IC50 is 0.3 µM.
Take `CC[C@H](C)[C@H](NC(=O)[C@H](CCC(=O)O)NC(=O)[C@H](CCC(=O)O)NC(=O)[C@@H](NC(=O)[C@@H](N)CCCCN)[C@@H](C)O)C(=O)N[C@@H](CO)C(=O)N[C@@H](CCC(=O)O)C(=O)N[C@H](C(=O)N[C@@H](CC(N)=O)C(=O)N[C@@H](CC(C)C)[C@@H](O)CC(=O)N[C@@H](CC(=O)O)C(=O)N[C@@H](C)C(=O)N[C@@H](CCC(=O)O)C(=O)N[C@@H](Cc1ccccc1)C(=O)O)C(C)C` (H-KTEEISEVN[Sta]DAEF-OH): the IC50 worked out at 40 µM.
As for H-TNIKTEEISEVNLLAEFR-OH, the IC50 came to 45 µM.
Turning to H-TNIKTEEISEVNLGAEFR-OH, the IC50 is 119 µM.
Then `CSCC[C@H](NC(=O)[C@@H](NC(C)=O)C(C)C)C(=O)N[C@@H](CC(C)C)C(O)C[C@H](C(=O)N[C@@H](C)C(=O)N[C@@H](CCC(=O)O)C(=O)N[C@@H](Cc1ccccc1)C(=O)O)C(C)C` (some centres not stated) (Ac-VM[LeuΨ(ξCHOHCH2)Val]AEF-OH), with 0.02 µM; and H-TNIKTEEISEVNLDAEFR-OH, with more than 200 µM; and H-TNIKTEEISEVNTDAEFR-OH, with more than 200 µM.

Values taken from ChEMBL document CHEMBL1135590, “Design of substrate-based inhibitors of human beta-secretase” (J Med Chem, 2002).
